Measured values published in PubChem BioAssay AID2060611 (Molecular Pharmacology Branch, DTP, NCI, 2025).
pIC50: −log10 of the molar value. Several values for one entry are separate records, joined by “and”; a condition that tells them apart may be missing. Equal values may be shown once.

System: 628569-122-R-J1-PDC complex spheroid viability
Assay: Anticancer human tumor 628569-122-R-J1-PDC patient-derived head and neck squamous carcinoma cell line growth inhibition [CLK]
Conditions: for viability, T/C: stronger effect = lower value
Summary of the method: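 Multi-cell-type spheroids combined patient-derived tumor cells with HUVEC endothelial cells and human mesenchymal stem cells. Paired agents were dosed in half-log steps down from about clinical Cmax, or from 10 microM where Cmax was unknown.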

[1] = curve of first compound, second compound 0.0316 µM
[2] = curve of first compound, second compound 0.1 µM
[3] = curve of first compound, second compound 0.316 µM
[4] = curve of first compound, second compound 1 µM
[5] = curve of first compound, second compound 3.16 µM
[6] = curve of first compound, second compound 10 µM
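Note: spheroids exposed to agents for seven days before readout.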
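Throughout, for viability, T/C: 100% = DMSO vehicle control viability.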

Structure (SMILES): CC(Nc1ccc2c(c1)OCCn1cc(N3C(=O)OCC3C(F)F)nc1-2)C(N)=O (stereo unspecified)
- viability, T/C (compound 0.0316 µM): 66.2% and 56.2%
- viability, T/C (compound 0.1 µM): 68.1% and 60.1%
- viability, T/C (compound 0.316 µM): 39.3% and 46.8%
- viability, T/C (compound 1 µM): 40.2% and 37.5%
- viability, T/C (compound 3.16 µM): 32% and 39.5%
- viability, T/C (compound 10 µM): 18.5% and 29.7%
- pIC50 (curve of compound): 6.55 and 6.66

Structure (SMILES): C=CC(=O)Nc1cc(Nc2nccc(-c3cn(C)c4ccccc34)n2)c(OC)cc1N(C)CCN(C)C + CN1CCN(c2cc(C(=O)Nc3cc4cc(-c5cnn(C)c5)ccc4cn3)ccn2)CC1
- pIC50 [1]: < 6.52
- pIC50 [2]: 6.99
- pIC50 [3]: > 9.02
- pIC50 [4]: > 9.02
- pIC50 [5]: > 9.02
- pIC50 [6]: > 9.02
- viability, T/C (second compound 0.0316 µM, first compound 0.000949 µM): 98.5%
- viability, T/C (second compound 0.0316 µM, first compound 0.003 µM): 112%
- viability, T/C (second compound 0.0316 µM, first compound 0.00949 µM): 94.6%
- viability, T/C (second compound 0.0316 µM, first compound 0.03 µM): 89.1%
- viability, T/C (second compound 0.0316 µM, first compound 0.0949 µM): 98.4%
- viability, T/C (second compound 0.0316 µM, first compound 0.3 µM): 59.1%
- viability, T/C (second compound 0.1 µM, first compound 0.000949 µM): 56.9%
- viability, T/C (second compound 0.1 µM, first compound 0.003 µM): 68.1%
- viability, T/C (second compound 0.1 µM, first compound 0.00949 µM): 70.1%
- viability, T/C (second compound 0.1 µM, first compound 0.03 µM): 57%
- viability, T/C (second compound 0.1 µM, first compound 0.0949 µM): 52.9%
- viability, T/C (second compound 0.1 µM, first compound 0.3 µM): 19.4%
- viability, T/C (second compound 0.316 µM, first compound 0.000949 µM): 35.5%
- viability, T/C (second compound 0.316 µM, first compound 0.003 µM): 44.2%
- viability, T/C (second compound 0.316 µM, first compound 0.00949 µM): 38.6%
- viability, T/C (second compound 0.316 µM, first compound 0.03 µM): 39%
- viability, T/C (second compound 0.316 µM, first compound 0.0949 µM): 32.9%
- viability, T/C (second compound 0.316 µM, first compound 0.3 µM): 14.3%
- viability, T/C (second compound 1 µM, first compound 0.000949 µM): 5.92%
- viability, T/C (second compound 1 µM, first compound 0.003 µM): 6.94%
- viability, T/C (second compound 1 µM, first compound 0.00949 µM): 10.9%
- viability, T/C (second compound 1 µM, first compound 0.03 µM): 5.22%
- viability, T/C (second compound 1 µM, first compound 0.0949 µM): 7.08%
- viability, T/C (second compound 1 µM, first compound 0.3 µM): 5.76%
- viability, T/C (second compound 3.16 µM, first compound 0.000949 µM): 5.99%
- viability, T/C (second compound 3.16 µM, first compound 0.003 µM): 7.83%
- viability, T/C (second compound 3.16 µM, first compound 0.00949 µM): 7.06%
- viability, T/C (second compound 3.16 µM, first compound 0.03 µM): 9.16%
- viability, T/C (second compound 3.16 µM, first compound 0.0949 µM): 6.05%
- viability, T/C (second compound 3.16 µM, first compound 0.3 µM): 4.8%
- viability, T/C (second compound 10 µM, first compound 0.000949 µM): 2.23%
- viability, T/C (second compound 10 µM, first compound 0.003 µM): 2.23%
- viability, T/C (second compound 10 µM, first compound 0.00949 µM): 4.31%
- viability, T/C (second compound 10 µM, first compound 0.03 µM): 2.44%
- viability, T/C (second compound 10 µM, first compound 0.0949 µM): 2.36%
- viability, T/C (second compound 10 µM, first compound 0.3 µM): 4.04%

Structure (SMILES): CC(=O)O[C@H]1C(=O)[C@@]2(C)[C@H]([C@H](OC(=O)c3ccccc3)[C@]3(O)C[C@H](OC(=O)[C@H](O)[C@@H](NC(=O)c4ccccc4)c4ccccc4)C(C)=C1C3(C)C)[C@]1(OC(C)=O)CO[C@@H]1C[C@@H]2O + CNC(=O)c1ccc(Nc2nc(OC3CCCC3)c3c(-c4ccc5nc(C)oc5c4)c[nH]c3n2)c(OC)c1
- pIC50 [1]: > 7.50
- pIC50 [2]: > 7.50
- pIC50 [3]: > 7.50
- pIC50 [4]: > 7.50
- pIC50 [5]: > 7.50
- pIC50 [6]: > 7.50
- viability, T/C (second compound 0.0316 µM, first compound 0.0316 µM): 34.6%
- viability, T/C (second compound 0.0316 µM, first compound 0.1 µM): 33.5%
- viability, T/C (second compound 0.0316 µM, first compound 0.316 µM): 36.6%
- viability, T/C (second compound 0.0316 µM, first compound 1 µM): 35.9%
- viability, T/C (second compound 0.0316 µM, first compound 3.16 µM): 36.5%
- viability, T/C (second compound 0.0316 µM, first compound 10 µM): 59%
- viability, T/C (second compound 0.1 µM, first compound 0.0316 µM): 50.4%
- viability, T/C (second compound 0.1 µM, first compound 0.1 µM): 47.4%
- viability, T/C (second compound 0.1 µM, first compound 0.316 µM): 49.6%
- viability, T/C (second compound 0.1 µM, first compound 1 µM): 55.5%
- viability, T/C (second compound 0.1 µM, first compound 3.16 µM): 67.9%
- viability, T/C (second compound 0.1 µM, first compound 10 µM): 68.4%
- viability, T/C (second compound 0.316 µM, first compound 0.0316 µM): 43.1%
- viability, T/C (second compound 0.316 µM, first compound 0.1 µM): 55.3%
- viability, T/C (second compound 0.316 µM, first compound 0.316 µM): 59.7%
- viability, T/C (second compound 0.316 µM, first compound 1 µM): 63.9%
- viability, T/C (second compound 0.316 µM, first compound 3.16 µM): 72.9%
- viability, T/C (second compound 0.316 µM, first compound 10 µM): 72.9%
- viability, T/C (second compound 1 µM, first compound 0.0316 µM): 41.4%
- viability, T/C (second compound 1 µM, first compound 0.1 µM): 53%
- viability, T/C (second compound 1 µM, first compound 0.316 µM): 55.2%
- viability, T/C (second compound 1 µM, first compound 1 µM): 57.6%
- viability, T/C (second compound 1 µM, first compound 3.16 µM): 57.9%
- viability, T/C (second compound 1 µM, first compound 10 µM): 68.5%
- viability, T/C (second compound 3.16 µM, first compound 0.0316 µM): 44.8%
- viability, T/C (second compound 3.16 µM, first compound 0.1 µM): 51.6%
- viability, T/C (second compound 3.16 µM, first compound 0.316 µM): 56.8%
- viability, T/C (second compound 3.16 µM, first compound 1 µM): 56.6%
- viability, T/C (second compound 3.16 µM, first compound 3.16 µM): 60.9%
- viability, T/C (second compound 3.16 µM, first compound 10 µM): 64.7%
- viability, T/C (second compound 10 µM, first compound 0.0316 µM): 41.2%
- viability, T/C (second compound 10 µM, first compound 0.1 µM): 47%
- viability, T/C (second compound 10 µM, first compound 0.316 µM): 55.3%
- viability, T/C (second compound 10 µM, first compound 1 µM): 64.2%
- viability, T/C (second compound 10 µM, first compound 3.16 µM): 65%
- viability, T/C (second compound 10 µM, first compound 10 µM): 69.9%
